Experimental data taken from patent US7491794B2, “Macrocyclic compounds as inhibitors of viral replication” (Intermune, Inc., priority 2003, dated 2009).
Read-outs that look alike come from different tables or passages of the source.

What was measured:
NS3-NS4A protease = target: T1, NS3-NS4A protease (Hepatitis C virus genotype 1a, UniProt P27958); experiment: NS3-NS4A protease assay (NS3 inhibition assay, RETS1 substrate), Section B; type: biochemical
T1 construct: Recombinant E. coli or Baculovirus full-length NS3 was diluted to 3.33 μM with assay buffer; made in house; host or cells: E. coli or baculovirus (BV) system
T1 sequence (P27958 1027-1657): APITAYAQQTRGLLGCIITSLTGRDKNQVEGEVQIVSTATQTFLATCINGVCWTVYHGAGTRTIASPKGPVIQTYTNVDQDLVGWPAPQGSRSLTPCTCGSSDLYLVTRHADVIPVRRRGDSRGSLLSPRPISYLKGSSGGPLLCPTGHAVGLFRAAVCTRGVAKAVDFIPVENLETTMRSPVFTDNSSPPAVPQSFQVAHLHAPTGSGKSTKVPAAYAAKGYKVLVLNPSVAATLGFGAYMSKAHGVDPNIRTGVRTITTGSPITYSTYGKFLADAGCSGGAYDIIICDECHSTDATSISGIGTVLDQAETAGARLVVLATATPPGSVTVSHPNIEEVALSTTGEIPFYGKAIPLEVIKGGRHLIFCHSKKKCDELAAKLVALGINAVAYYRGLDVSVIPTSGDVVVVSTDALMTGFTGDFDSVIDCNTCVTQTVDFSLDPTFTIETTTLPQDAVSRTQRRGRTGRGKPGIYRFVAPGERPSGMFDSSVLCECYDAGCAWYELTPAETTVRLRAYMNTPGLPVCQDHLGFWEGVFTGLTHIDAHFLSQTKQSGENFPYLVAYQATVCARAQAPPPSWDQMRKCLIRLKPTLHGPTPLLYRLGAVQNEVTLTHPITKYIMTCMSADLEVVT
Outline: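 Full-length NS3 (E. coli or baculovirus) precomplexed with excess NS4A-2 peptide, run at 2 nM (E. coli) or 3 nM (BV) NS3; compounds pre-incubated 10 min at room temperature before RETS1 substrate. Fluorescence (ex 335/em 495 nm) read kinetically 30 min; IC50 from four-parameter fit, converted to Ki via Ki=IC50/(1+[S]/Km).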

[1] = system: HCV sub-genomic replicon, GS4.3; experiment: Quantitation by ELISA of NPTII in the HCV sub-genomic replicon, GS4.3, Section B; type: cell-based; conditions: Hepatitis C virus, read-out: Replicon EC50
Outline: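 GS4.3 cells (HuH-7 carrying HCV 1377/NS3-3′ replicon) were treated 72 h at 37 °C with inhibitors in 3-fold dilutions, 1% DMSO, no G418. Lysate NPTII was measured by ELISA (TMB, 450 nm). Signal as % of DMSO control; EC50 from 4-parameter fit.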

## CC(C)(C)OC(=O)N[C@H]1CCCCC/C=C\[C@@H]2C[C@@]2(C(=O)O)NC(=O)[C@@H]2C[C@@H](OC(=O)N3CCc4nc(Nc5ccccc5)sc4C3)CN2C1=O [AR00304000, (1S,4R,6S,14S,18R)-14-tert-Butoxycarbonylamino-2,15-dioxo-18-(2-phenylamino-6,7-dihydro-4H-thiazolo[5,4-c]pyridine-5-carbonyloxy)-3,16-diaza-tricyclo[14.3.0.0^4,6]nonadec-7-ene-4-carboxylic acid]
NS3-NS4A protease; read-out: NS3-NS4A IC50
  IC50: < 1000 nM
[1]; GS4.3 cells, 72 h incubation
  EC50: < 10 µM

## CC(C)(C)OC(=O)N[C@H]1CCCCC/C=C\[C@@H]2C[C@@]2(C(=O)NS(=O)(=O)C2CC2)NC(=O)[C@@H]2C[C@@H](NC(=O)N3Cc4ccccc4C3)CN2C1=O [AR00304008, (1S,4R,6S,14S,18R)-{4-Cyclopropanesulfonylaminocarbonyl-18-[(1,3-dihydro-isoindole-2-carbonyl)-amino]-2,15-dioxo-3,16-diaza-tricyclo[14.3.0.0^4,6]nonadec-7-en-14-yl}-carbamic acid tert-butyl ester]
NS3-NS4A protease; read-out: NS3-NS4A IC50
  IC50: < 100 nM
[1]; GS4.3 cells, 72 h incubation
  EC50: < 0.1 µM

## CC(C)(C)OC(=O)N[C@H]1CCCCC/C=C\[C@@H]2C[C@@]2(C(=O)O)NC(=O)[C@@H]2C[C@@H](NC(=S)N3CCc4ccccc4C3)CN2C1=O [AR00304010, (1S,4R,6S,14S,18R)-14-tert-Butoxycarbonylamino-18-[(3,4-dihydro-1H-isoquinoline-2-carbothioyl)-amino]-2,15-dioxo-3,16-diaza-tricyclo[14.3.0.0^4,6]nonadec-7-ene-4-carboxylic acid]
NS3-NS4A protease; read-out: NS3-NS4A IC50
  IC50: < 1000 nM
[1]; GS4.3 cells, 72 h incubation
  EC50: < 10 µM

## CC(C)(C)OC(=O)N[C@H]1CCCCC/C=C\[C@@H]2C[C@@]2(C(=O)NS(=O)(=O)C2CC2)NC(=O)[C@@H]2C[C@@H](NC(=S)N3CCc4ccccc4C3)CN2C1=O [AR00304012, (1S,4R,6S,14S,18R)-{4-Cyclopropanesulfonylaminocarbonyl-18-[(3,4-dihydro-1H-isoquinoline-2-carbothioyl)-amino]-2,15-dioxo-3,16-diaza-tricyclo[14.3.0.0^4,6]nonadec-7-en-14-yl}-carbamic acid tert-butyl ester]
NS3-NS4A protease; read-out: NS3-NS4A IC50
  IC50: < 100 nM
[1]; GS4.3 cells, 72 h incubation
  EC50: < 1 µM

## O=C(NC1CCCC1)N[C@H]1CCCCC/C=C\[C@@H]2C[C@@]2(C(=O)NS(=O)(=O)C2CC2)NC(=O)[C@@H]2C[C@@H](NC(=O)N3Cc4ccccc4C3)CN2C1=O [AR00304014, (1S,4R,6S,14S,18R)-1,3-Dihydro-isoindole-2-carboxylic acid [14-(3-cyclopentyl-ureido)-4-cyclopropanesulfonylaminocarbonyl-2,15-dioxo-3,16-diaza-tricyclo[14.3.0.0^4,6]nonadec-7-en-18-yl]-amide]
NS3-NS4A protease; read-out: NS3-NS4A IC50
  IC50: < 100 nM
[1]; GS4.3 cells, 72 h incubation
  EC50: < 0.1 µM

## CC(C)(C)OC(=O)N[C@H]1CCCCC/C=C\[C@@H]2C[C@@]2(C(=O)O)NC(=O)[C@@H]2C[C@@H](OC(=O)N3CCc4cc(F)ccc4C3)CN2C1=O [AR00304063, (1S,4R,6S,14S,18R)-14-tert-Butoxycarbonylamino-18-(6-fluoro-3,4-dihydro-1H-isoquinoline-2-carbonyloxy)-2,15-dioxo-3,16-diaza-tricyclo[14.3.0.0^4,6]nonadec-7-ene-4-carboxylic acid]
NS3-NS4A protease; read-out: NS3-NS4A IC50
  IC50: < 1000 nM
[1]; GS4.3 cells, 72 h incubation
  EC50: < 10 µM

## CC(C)(C)OC(=O)N[C@H]1CCCCC/C=C\[C@@H]2C[C@@]2(C(=O)O)NC(=O)[C@@H]2C[C@@H](OC(=O)N3Cc4ccccc4C4(CCC4)C3)CN2C1=O [AR00304065, (1S,4R,6S,14S,18R)-14-tert-Butoxycarbonylamino-18-(4,4-spirocyclobutyl-3,4-dihydro-1H-isoquinoline-2-carbonyloxy)-2,15-dioxo-3,16-diaza-tricyclo[14.3.0.0^4,6]nonadec-7-ene-4-carboxylic acid]
NS3-NS4A protease; read-out: NS3-NS4A IC50
  IC50: < 1000 nM
[1]; GS4.3 cells, 72 h incubation
  EC50: < 10 µM

## CC(C)(C)OC(=O)N[C@H]1CCCCCC=C[C@@H]2C[C@@]2(C(=O)O)NC(=O)[C@@H]2C[C@@H](OC(=O)N3Cc4ccccc4C(C)(C)C3)CN2C1=O [AR00304066, (1S,4R,6S,14S,18R)-14-tert-Butoxycarbonylamino-18-(4,4-dimethyl-3,4-dihydro-1H-isoquinoline-2-carbonyloxy)-2,15-dioxo-3,16-diaza-tricyclo[14.3.0.0^4,6]nonadec-7-ene-4-carboxylic acid]
NS3-NS4A protease; read-out: NS3-NS4A IC50
  IC50: < 1000 nM
[1]; GS4.3 cells, 72 h incubation
  EC50: < 10 µM

## CC1CN(C(=O)O[C@@H]2C[C@H]3C(=O)N[C@]4(C(=O)O)C[C@H]4C=CCCCCC[C@H](NC(=O)OC(C)(C)C)C(=O)N3C2)Cc2ccccc21 (stereo partly drawn) [AR00304067, (1S,4R,6S,14S,18R)-14-tert-Butoxycarbonylamino-18-(4-methyl-3,4-dihydro-1H-isoquinoline-2-carbonyloxy)-2,15-dioxo-3,16-diaza-tricyclo[14.3.0.0^4,6]nonadec-7-ene-4-carboxylic acid]
NS3-NS4A protease; read-out: NS3-NS4A IC50
  IC50: < 1000 nM
[1]; GS4.3 cells, 72 h incubation
  EC50: < 10 µM

## CC(C)[C@@H](NC(=O)c1ccc(N(C)C)nc1)C(=O)N[C@H]1CCCCC/C=C\[C@@H]2C[C@@]2(C(=O)O)NC(=O)[C@@H]2C[C@@H](OC(=O)N3CCc4ccccc4C3)CN2C1=O [AR00304072, (1S,4R,6S,14S,18R)-18-(3,4-Dihydro-1H-isoquinoline-2-carbonyloxy)-14-{2-[(6-dimethylamino-pyridine-3-carbonyl)-amino]-3-methyl-butyrylamino}-2,15-dioxo-3,16-diaza-tricyclo[14.3.0.0^4,6]nonadec-7-ene-4-carboxylic acid]
NS3-NS4A protease
  IC50: < 1000 nM
[1]; 72 h
  EC50: < 10 µM

## CC(C)[C@@H](NC(=O)c1cccnc1)C(=O)N[C@H]1CCCCC/C=C\[C@@H]2C[C@@]2(C(=O)O)NC(=O)[C@@H]2C[C@@H](OC(=O)N3CCc4ccccc4C3)CN2C1=O [AR00304073, (1S,4R,6S,14S,18R)-18-(3,4-Dihydro-1H-isoquinoline-2-carbonyloxy)-14-{3-methyl-2-[(pyridine-3-carbonyl)-amino]-butyrylamino}-2,15-dioxo-3,16-diaza-tricyclo[14.3.0.0^4,6]nonadec-7-ene-4-carboxylic acid]
NS3-NS4A protease
  IC50: < 1000 nM
[1]; 72 h
  EC50: < 10 µM

## O=C(N[C@H]1CCCCC/C=C\[C@@H]2C[C@@]2(C(=O)O)NC(=O)[C@@H]2C[C@@H](OC(=O)N3CCc4c(F)cccc4C3)CN2C1=O)OC1CCCC1 [AR00304074, (1S,4R,6S,14S,18R)-14-Cyclopentyloxycarbonylamino-18-(5-fluoro-3,4-dihydro-1H-isoquinoline-2-carbonyloxy)-2,15-dioxo-3,16-diaza-tricyclo[14.3.0.0^4,6]nonadec-7-ene-4-carboxylic acid]
NS3-NS4A protease; read-out: NS3-NS4A IC50
  IC50: < 1000 nM
[1]; GS4.3 cells, 72 h incubation
  EC50: < 10 µM

## O=C(N[C@H]1CCCCCC=C[C@@H]2C[C@@]2(C(=O)O)NC(=O)[C@@H]2C[C@@H](OC(=O)N3CCc4cccc(C(F)(F)F)c4C3)CN2C1=O)OC1CCCC1 [AR00304075, (1S,4R,6S,14S,18R)-14-Cyclopentyloxycarbonylamino-2,15-dioxo-18-(8-trifluoromethyl-3,4-dihydro-1H-isoquinoline-2-carbonyloxy)-3,16-diaza-tricyclo[14.3.0.0^4,6]nonadec-7-ene-4-carboxylic acid]
NS3-NS4A protease; read-out: NS3-NS4A IC50
  IC50: < 1000 nM
[1]; GS4.3 cells, 72 h incubation
  EC50: < 10 µM

## O=C(N[C@H]1CCCCC/C=C\[C@@H]2C[C@@]2(C(=O)O)NC(=O)[C@@H]2C[C@@H](OC(=O)N3Cc4ccccc4C3)CN2C1=O)OC1CCCC1 [AR00304076, (1S,4R,6S,14S,18R)-14-Cyclopentyloxycarbonylamino-18-(1,3-dihydro-isoindole-2-carbonyloxy)-2,15-dioxo-3,16-diaza-tricyclo[14.3.0.0^4,6]nonadec-7-ene-4-carboxylic acid]
NS3-NS4A protease; read-out: NS3-NS4A IC50
  IC50: < 100 nM
[1]; GS4.3 cells, 72 h incubation
  EC50: < 1 µM

## O=C(NC1CCCC1)N[C@H]1CCCCC/C=C\[C@@H]2C[C@@]2(C(=O)O)NC(=O)[C@@H]2C[C@@H](OC(=O)N3CCc4c(F)cccc4C3)CN2C1=O [AR00304077, (1S,4R,6S,14S,18R)-14-(3-Cyclopentyl-ureido)-18-(5-fluoro-3,4-dihydro-1H-isoquinoline-2-carbonyloxy)-2,15-dioxo-3,16-diaza-tricyclo[14.3.0.0^4,6]nonadec-7-ene-4-carboxylic acid]
NS3-NS4A protease; read-out: NS3-NS4A IC50
  IC50: < 100 nM
[1]; GS4.3 cells, 72 h incubation
  EC50: < 10 µM

## O=C(NC1CCCC1)N[C@H]1CCCCC/C=C\[C@@H]2C[C@@]2(C(=O)O)NC(=O)[C@@H]2C[C@@H](OC(=O)N3CCc4cccc(C(F)(F)F)c4C3)CN2C1=O [AR00304078, (1S,4R,6S,14S,18R)-14-(3-Cyclopentyl-ureido)-2,15-dioxo-18-(8-trifluoromethyl-3,4-dihydro-1H-isoquinoline-2-carbonyloxy)-3,16-diaza-tricyclo[14.3.0.0^4,6]nonadec-7-ene-4-carboxylic acid]
NS3-NS4A protease; read-out: NS3-NS4A IC50
  IC50: < 100 nM
[1]; GS4.3 cells, 72 h incubation
  EC50: < 1 µM

## O=C(NC1CCCC1)N[C@H]1CCCCC/C=C\[C@@H]2C[C@@]2(C(=O)O)NC(=O)[C@@H]2C[C@@H](OC(=O)N3Cc4ccccc4C3)CN2C1=O [AR00304079, (1S,4R,6S,14S,18R)-14-(3-Cyclopentyl-ureido)-18-(1,3-dihydro-isoindole-2-carbonyloxy)-2,15-dioxo-3,16-diaza-tricyclo[14.3.0.0^4,6]nonadec-7-ene-4-carboxylic acid]
NS3-NS4A protease; read-out: NS3-NS4A IC50
  IC50: < 100 nM
[1]; GS4.3 cells, 72 h incubation
  EC50: < 1 µM

## O=C(NC1CCCC1)N[C@H]1CCCCC/C=C\[C@@H]2C[C@@]2(C(=O)NS(=O)(=O)C2CC2)NC(=O)[C@@H]2C[C@@H](OC(=O)N3CCc4c(F)cccc4C3)CN2C1=O [AR00304080, (1S,4R,6S,14S,18R)-5-Fluoro-3,4-dihydro-1H-isoquinoline-2-carboxylic acid 14-(3-cyclopentyl-ureido)-4-cyclopropanesulfonylaminocarbonyl-2,15-dioxo-3,16-diaza-tricyclo[14.3.0.0^4,6]nonadec-7-en-18-yl ester]
NS3-NS4A protease; read-out: NS3-NS4A IC50
  IC50: < 100 nM
[1]; GS4.3 cells, 72 h incubation
  EC50: < 0.1 µM
